SMILES strings stand for the structures. Where two headings read alike, the source gives them in different places.

The results in this text go back to patent publication US20250353857A1, “COMPOUND ACTIVE AS INHIBITOR OF COLONY STIMULATION FACTOR-1 RECEPTOR (CSF-1 R)” (priority 2022, published 2025).

The test system of experiment [1] is P-MAPK (ERK1/2) in CSF-1 stimulated bone-marrow derived macrophages. Nature of the experiment: Effect of CSF1R inhibitors on MAPK signaling in mouse bone-marrow derived macrophages. The format is cell-based. Conditions: fold change relative to PLX3397 (IC50 inhibitor/IC50 PLX3397), P-MAPK/total MAPK, 10 ng/mL CSF-1.
The target in another experiment is CSF1R (Homo sapiens (Human), UniProt P07333). Nature of the experiment: CSF1R enzymatic inhibitory assay (Invitrogen Z'-LYTE, FRET).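 Note: kinase phosphorylates a tyrosine on a coumarin/fluorescein FRET peptide, a protease cuts peptide left unphosphorylated, inhibition quantified from the donor-to-acceptor emission ratio with excitation at 400 nm.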 The format is biochemical.
Sequence of CSF1R (P07333 20-972): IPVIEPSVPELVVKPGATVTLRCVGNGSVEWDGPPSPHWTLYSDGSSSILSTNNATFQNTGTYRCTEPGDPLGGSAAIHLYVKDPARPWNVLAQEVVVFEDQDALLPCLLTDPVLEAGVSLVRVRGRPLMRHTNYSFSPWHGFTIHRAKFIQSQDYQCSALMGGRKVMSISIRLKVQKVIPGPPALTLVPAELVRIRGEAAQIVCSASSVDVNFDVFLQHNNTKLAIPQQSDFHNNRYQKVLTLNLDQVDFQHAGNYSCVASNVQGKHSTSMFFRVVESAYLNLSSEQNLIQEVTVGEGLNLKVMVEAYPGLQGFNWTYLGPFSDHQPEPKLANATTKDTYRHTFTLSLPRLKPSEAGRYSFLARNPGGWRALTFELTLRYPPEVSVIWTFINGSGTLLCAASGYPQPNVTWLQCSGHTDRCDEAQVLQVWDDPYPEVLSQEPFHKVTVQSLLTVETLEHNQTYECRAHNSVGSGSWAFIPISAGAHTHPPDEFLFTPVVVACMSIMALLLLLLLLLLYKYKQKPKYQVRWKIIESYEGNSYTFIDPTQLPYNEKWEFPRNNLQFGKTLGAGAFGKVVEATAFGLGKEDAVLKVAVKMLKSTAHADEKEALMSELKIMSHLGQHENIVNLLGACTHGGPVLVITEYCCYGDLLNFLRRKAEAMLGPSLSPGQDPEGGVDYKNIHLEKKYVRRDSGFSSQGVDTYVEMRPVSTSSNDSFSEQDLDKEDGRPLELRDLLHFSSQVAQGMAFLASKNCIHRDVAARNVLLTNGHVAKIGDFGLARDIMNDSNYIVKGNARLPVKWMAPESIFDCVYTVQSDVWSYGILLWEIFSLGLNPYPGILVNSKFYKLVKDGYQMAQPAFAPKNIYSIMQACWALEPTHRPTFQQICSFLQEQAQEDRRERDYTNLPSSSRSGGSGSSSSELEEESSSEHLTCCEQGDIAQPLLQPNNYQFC
[2] abbreviates: Z'-LYTE assay, ATP concentration equal to Km, average of at least 2 titration curves, read-out: CSF1R (IC50).

On to `CN1CCCC(CN(C)c2ncnc3[nH]c(-c4ccc(CO)cc4)nc23)C1` (stereo not drawn) [TIA04-063, N-Methyl-N-(1-methylpiperidin-3-ylmethyl)-8-(4-(hydroxymethyl)phenyl)-9H-purin-6-amine], for which the “MAPK (fold)” value in experiment [1] is recorded as >3 fold. The IC50 on CSF1R (setting [2]) was found to be 53 ± 4 nM.
For `CN(CC1CCOCC1)c1ncnc2[nH]c(-c3ccc(CCO)cc3)nc12` [TIA05-014, N-Methyl-N-(oxan-4-ylmethyl)-8-(4-(2-hydroxyethyl)phenyl)-9H-purin-6-amine], in that order: 1.7 fold and 0.2 nM.
In the case of `CC(C)C1CCCN1c1ncnc2[nH]c(-c3ccc(CO)cc3)nc12` (stereo not drawn) [TIA04-065], the “MAPK (fold)” value in experiment [1] is given as >3 fold. The half-maximal inhibitory concentration (IC50) on CSF1R (setting [2]) came out at 5.4 ± 2.4 nM.
For `CN(CC1CCOCC1)c1ncnc2[nH]c(-c3ccc(CO)cc3)nc12` [TIA04-051, N-Methyl-N-(oxan-4-ylmethyl)-8-(4-(hydroxymethyl)phenyl)-9H-purin-6-amine], in that order: 1 fold and 0.3 nM.
For `OCc1ccc(-c2nc3c(N4CCCC4c4ccccc4)ncnc3[nH]2)cc1` (stereo not drawn) [TIA02-176, 8-(4-(Hydroxymethyl)phenyl)-6-(2-phenylpyrrolidin-1-yl)-9H-purine], in that order: >3 fold and 1.9 ± 0.2 nM.
For `COc1ccc(CN(C)c2ncnc3[nH]c(-c4ccc(CCC(=O)O)cc4)cc23)cc1OC` [FAB 01-24, 3-(4-(4-((3,4-Dimethoxybenzyl)(methyl)amino)-7H-pyrrolo[2,3-d]pyrimidin-6-yl)phenyl)propanoic acid], in that order: >5 fold and 0.6 nM.
Regarding `CN(Cc1cccnc1)c1ncnc2[nH]c(-c3ccc(CO)cc3)nc12` [TIA02-166, N-Methyl-N-(pyridin-3-ylmethyl)-8-(4-(hydroxymethyl)phenyl)-9H-purin-6-amine], the “MAPK (fold)” value in experiment [1] is recorded as >3 fold. Besides, the half-maximal inhibitory concentration (IC50) on CSF1R (setting [2]) is 2.1 ± 0.4 nM.
For `CN(CC1CCCCC1)c1ncnc2[nH]c(-c3ccc(CO)cc3)nc12` [TIA03-024, N-Methyl-N-(cyclohexylmethyl)-8-(4-(hydroxymethyl)phenyl)-9H-purin-6-amine], in that order: 0.9 fold and 0.7 nM.
For `CN(CC1CCCO1)c1ncnc2[nH]c(-c3ccc(CO)cc3)nc12` (stereo not drawn) [TIA04-093, N-Methyl-N-(tetrahydrofuran-2-ylmethyl)-8-(4-(hydroxymethyl)phenyl)-9H-purin-6-amine], in that order: >3 fold and 2.6 ± 0.3 nM.
For `CN(CC1CCCCC1)c1ncnc2[nH]c(-c3ccc(CO)cc3)cc12` [TIA05-090, (4-(4-((Cyclohexylmethyl)(methyl)amino)-7H-pyrrolo[2,3-d]pyrimidin-6-yl)phenyl)methanol], in that order: 1.0 fold and 0.3 nM.
Turning to `CN(CC1CCCC1)c1ncnc2[nH]c(-c3ccc(CO)cc3)nc12` [TIA03-188, N-Methyl-N-(cyclopentylmethyl)-8-(4-(hydroxymethyl)phenyl)-9H-purin-6-amine], in experiment [1], the “MAPK (fold)” value came out at 0.6 fold. Besides, the IC50 at CSF1R (setting [2]) was 0.3 ± 0.2 nM.
For the molecule `COc1cccc(CN(C)c2ncnc3[nH]c(-c4ccc(CCC(=O)O)cc4)cc23)c1` [FAB01-23, 3-(4-(4-((3-Methoxybenzyl)(methyl)amino)-7H-pyrrolo[2,3-d]pyrimidin-6-yl)phenyl)propanoic acid], the “MAPK (fold)” value in experiment [1] was >5 fold. On CSF1R, this molecule yielded an IC50 of 0.2 nM.
With `CN(Cc1ccccc1)c1ncnc2[nH]c(N3CCOCC3)nc12` [TIA04-105, N-Benzyl-N-methyl-8-morpholino-9H-purin-6-amine], in experiment [1], the “MAPK (fold)” value is >3 fold. Further, the IC50 at CSF1R (setting [2]) was 16 ± 4 nM.
For `CN(CC1CCOC1)c1ncnc2[nH]c(-c3ccc(CO)cc3)nc12` (stereo not drawn) [TIA04-049, N-Methyl-N-(tetrahydrofuran-3-ylmethyl)-8-(4-(hydroxymethyl)phenyl)-9H-purin-6-amine], in that order: >3 fold and 4.6 ± 0.6 nM.
For `Cc1cccc(CN(C)c2ncnc3[nH]c(-c4ccc(C5CCCC(=O)O5)cc4)cc23)c1` (stereo not drawn) [LR-1-124, 6-(4-(4-(Methyl(3-methylbenzyl)amino)-7H-pyrrolo[2,3-d]pyrimidin6-yl)phenyl)tetrahydro-2H-pyran-2-one], in that order: 2.1 fold and 0.8 ± 0.1 nM.
For `CN(Cc1ccccc1O)c1ncnc2[nH]c(-c3ccc(CO)cc3)nc12` [TIA04-009, N-Methyl-N-(2-hydroxybenzyl)-8-(4-(hydroxymethyl)phenyl)-9H-purin-6-amine], in that order: >3 fold and 2.3 ± 0.3 nM.
Regarding `CN(CC1CCCCO1)c1ncnc2[nH]c(-c3ccc(CO)cc3)nc12` (stereo not drawn) [TIA04-095, N-Methyl-N-(oxan-2-ylmethyl)-8-(4-(hydroxymethyl)phenyl)-9H-purin-6-amine], the “MAPK (fold)” value in experiment [1] was >3 fold. Besides, the IC50 on CSF1R (setting [2]) worked out at 1.3 ± 0.2 nM.
For `CN(Cc1ccc(F)cc1)c1ncnc2[nH]c(-c3ccc(CO)cc3)nc12` [TIA02-134, N-Methyl-N-(4-fluorobenzyl)-8-(4-(hydroxymethyl)phenyl)-9H-purin-6-amine], in that order: >3 fold and 8.8 ± 0.3 nM.
As for `Cc1cccc(CN(C)c2ncnc3[nH]c(-c4ccc(CO)cc4)nc23)c1` [TIA02-172, N-Methyl-N-(3-methylbenzyl)-8-(4-(hydroxymethyl)phenyl)-9H-purin-6-amine], in experiment [1], the “MAPK (fold)” value is >5 fold. Further, the IC50 on CSF1R (setting [2]) stood at 1.5 ± 0.2 nM.
For `COc1ccccc1CN(C)c1ncnc2[nH]c(-c3ccc(CO)cc3)nc12` [TIA03-106, N-(2-Methoxybenzyl)-N-methyl-8-(4-(hydroxymethyl)phenyl)-9H-purin-6-amine], in that order: >3 fold and 4.2 ± 1.4 nM.
Take `CN(CC1CCCCC1)c1ncnc2[nH]c(C3=CCCCC3)nc12` [TIA03-186, 8-(Cyclohex-1-en-1-yl)-N-(cyclohexylmethyl)-N-methyl-9H-purin-6-amine]: the IC50 on CSF1R (setting [2]) was 0.7 ± 0.2 nM.
Same read-out and setting: the same measure for `CN(Cc1cc(Cl)ccc1Cl)c1ncnc2[nH]c(-c3ccc(CN4CCOCC4)cc3)cc12` [LR-2-123, N-(2,5-Dichlorobenzyl)-N-methyl-6-(4-(morpholinomethyl)phenyl)-7H-pyrrolo[2,3-d]pyrimidin-4-amine]: 2.7 ± 0.4 nM; for `OCC(O)(CO)c1ccc(-c2cc3c(N4CCCC4C4CCOCC4)ncnc3[nH]2)cc1` (stereo not drawn) [LR-2-052-2]: 3 nM.
As for `Cc1cccc(CN(C)c2ccnc3[nH]ccc23)c1` [CJ1_78], the half-maximal inhibitory concentration (IC50) at CSF1R (setting [2]) is > 500 nM.
In the case of `CN(CC1CCCCC1)c1ncnc2[nH]c(-c3ccc(CN4CCOCC4)cc3)nc12` [TIA04-117, N-(Cyclohexylmethyl)-N-methyl-8-(4-(4-morpholinomethyl)phenyl)-9H-purin-6-amine], in experiment [1], the “MAPK (fold)” value is recorded as 1.2 fold. Further, at CSF1R (setting [2]), the half-inhibitory concentration (IC50) was 1.2 ± 0.2 nM.
For `CN(Cc1ccccc1)c1ncnc2[nH]c(-c3ccccc3CO)nc12` [JKS02-027, (2-(6-(Benzyl(methyl)amino)-9H-purin-8-yl)phenyl)methanol], in that order: >3 fold and 1.2 ± 0.2 nM.
